# Test results as given in BindingDB's records for patent US20240208953 (Novartis, 2024).
# Target: Potassium voltage-gated channel subfamily H member 2 (Homo sapiens, UniProt Q12809)
# Assay: hERG Qpatch Assay
# Description: hERG currents were recorded using the Qpatch automated patch clamp systems (Sophion Bioscience Inc., North Brunswick, NJ) in the whole (single) cell configuration. hERG expressing CHO-K1 cells were harvested with Detachin (Genlantis) and stored in the modified serum-free SFM-2 media (Life Technologies) at room temperature. The extracellular solution contained (in mM) NaCl (145), KCl (4), MgCl2 (1), CaCl2 (2), and HEPES (10), pH 7.4, with NaOH. The intracellular solution contained KCl (135), MgCl2 (1.75), CaCl2 (5.4), EGTA (10), K2-ATP (4), and HEPES (10), pH 7.2, with KOH. After whole cell configuration was achieved, the cell was held at +-90 mV, and a 0.1 s pulse to +-50 mV was delivered to measure the leaking current, which was subtracted from the tail current online. Then the cell was depolarized to +20 mV for 4 s (prepulse), followed by a 4 s test pulse to +-50 mV to reveal the hERG tail current. To monitor changes in the current amplitude, this voltage protocol was repeatedly applied every 20 s. Test compounds were first diluted in DMSO for six dose-response experiments and then dissolved in the extracellular solution using Freedom EVO liquid handling robotic system (Tecan, M nnedorf, Switzerland). The final DMSO concentration in samples was 0.3% v/v. Amitriptyline (Sigma) was tested as a positive control.
# Chain of Potassium voltage-gated channel subfamily H member 2 (Q12809 whole entry): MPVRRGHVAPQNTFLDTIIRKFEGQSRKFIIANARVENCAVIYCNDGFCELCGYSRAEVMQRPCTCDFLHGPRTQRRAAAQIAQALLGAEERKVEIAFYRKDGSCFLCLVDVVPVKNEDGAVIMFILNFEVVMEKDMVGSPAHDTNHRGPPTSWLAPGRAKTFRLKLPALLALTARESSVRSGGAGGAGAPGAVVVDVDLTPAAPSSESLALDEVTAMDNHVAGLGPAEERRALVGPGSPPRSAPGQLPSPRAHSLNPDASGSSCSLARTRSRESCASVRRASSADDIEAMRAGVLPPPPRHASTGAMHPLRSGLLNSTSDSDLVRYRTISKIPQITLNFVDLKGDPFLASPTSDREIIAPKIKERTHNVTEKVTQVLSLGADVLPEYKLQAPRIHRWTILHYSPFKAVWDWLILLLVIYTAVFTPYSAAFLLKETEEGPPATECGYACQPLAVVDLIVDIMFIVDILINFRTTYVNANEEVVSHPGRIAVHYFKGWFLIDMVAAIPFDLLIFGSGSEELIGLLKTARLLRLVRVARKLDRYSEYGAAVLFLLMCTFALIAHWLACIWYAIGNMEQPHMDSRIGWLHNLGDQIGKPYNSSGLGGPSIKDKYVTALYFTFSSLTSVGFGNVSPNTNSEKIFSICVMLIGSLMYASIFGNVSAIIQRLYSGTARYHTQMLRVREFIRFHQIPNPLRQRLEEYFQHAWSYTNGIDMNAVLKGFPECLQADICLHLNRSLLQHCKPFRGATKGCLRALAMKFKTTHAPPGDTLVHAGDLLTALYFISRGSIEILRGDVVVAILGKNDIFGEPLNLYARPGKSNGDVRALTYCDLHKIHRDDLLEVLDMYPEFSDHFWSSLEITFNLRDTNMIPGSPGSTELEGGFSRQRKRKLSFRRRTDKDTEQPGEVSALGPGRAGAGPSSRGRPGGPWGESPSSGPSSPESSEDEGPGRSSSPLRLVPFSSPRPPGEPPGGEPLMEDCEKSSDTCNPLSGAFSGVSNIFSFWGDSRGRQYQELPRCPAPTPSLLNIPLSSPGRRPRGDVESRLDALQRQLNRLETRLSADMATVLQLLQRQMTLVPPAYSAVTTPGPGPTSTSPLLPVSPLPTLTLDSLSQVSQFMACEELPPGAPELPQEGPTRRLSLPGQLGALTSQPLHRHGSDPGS
row,SMILES,IC50
1,"O=C1Nc2c(F)cc([C@@H](O)CN3C[C@H]4C[C@H](Oc5ccccc5)C[C@@]4(O)C3)cc2CO1 [US20240208953, Example 28A]",2.4 µM
2,"O=C1CCc2cc([C@H](O)CN3C[C@H]4C[C@H](Oc5ccccc5F)C[C@@]4(O)C3)cc(F)c2N1 [US20240208953, Example 29B]",12.5 µM
